Results reported in US8426447B2, “Spiro-tricyclic ring compounds as beta-secretase modulators and methods of use” (Amgen Inc., priority 2008, dated 2013).

Assays:
[1] = biological target: T1, BACE1 (Homo sapiens, UniProt P56817); experiment: In Vitro Enzymatic BACE FRET (Fluorescence Resonance Energy Transfer) Assay; format: biochemical; settings: read-out: BACE1 FRET assay
Outline: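 Buffer 0.05 M acetate pH 4.2 with 10% DMSO final and 100 uM genapol; reaction started with 50 nM FRET peptide substrate (fluorophore/quencher flanking BACE cleavage site), incubated one hour. Stopped with Tris buffer raising pH to neutrality, then fluorescence read.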

[2] = biological target: T1, BACE1; experiment: In Vitro BACE Cell-based Assay (HEK cell assay): Aβ40 in conditioned medium of cells stably expressing Amyloid Precursor Protein, sandwich ELISA; settings: read-out: HEK cell assay
Outline: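 Conditioned medium Aβ40 by ELISA: pAb40 capture 3 h 4° C., biotin-6E10 detection 2 h 4° C., Streptavidin-Europium TRF. IC50 fitted from % control.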

T1 sequence (P56817 46-501, species assumed): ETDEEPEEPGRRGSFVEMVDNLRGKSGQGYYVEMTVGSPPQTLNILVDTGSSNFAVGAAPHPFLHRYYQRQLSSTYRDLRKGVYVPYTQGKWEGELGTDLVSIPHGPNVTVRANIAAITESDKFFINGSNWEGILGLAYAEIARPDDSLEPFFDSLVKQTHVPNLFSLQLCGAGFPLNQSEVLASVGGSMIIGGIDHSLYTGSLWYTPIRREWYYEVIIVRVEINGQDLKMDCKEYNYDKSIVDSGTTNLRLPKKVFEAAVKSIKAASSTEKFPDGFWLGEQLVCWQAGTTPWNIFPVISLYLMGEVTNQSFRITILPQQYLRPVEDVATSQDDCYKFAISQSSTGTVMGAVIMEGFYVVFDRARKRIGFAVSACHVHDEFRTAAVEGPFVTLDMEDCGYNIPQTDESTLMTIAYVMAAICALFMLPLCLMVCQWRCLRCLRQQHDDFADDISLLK

## CC1CCN(c2cc3c(cn2)Oc2ccc(-c4cccnc4)cc2[C@@]32COC(N)=N2)CC1 [compound 441]
[1]
  IC50: < 0.1 µM
[2]; HEK cells
  IC50: < 0.1 µM

## CC(C)(C)COc1ccc2c(c1)[C@]1(COC(N)=N1)c1cc(C3CCCC3)ccc1O2 [compound 701]
[1]
  IC50: < 0.1 µM
[2]
  IC50: 1 to 5 µM

## NC1=N[C@]2(CO1)c1cc(C3=CCOCC3)ccc1Oc1cc(F)c(O)cc12 [compound 491]
[1]
  IC50: 0.1 to 1 µM
[2]; HEK cells
  IC50: 1 to 5 µM

## COC(C)(C)CCc1ccc2c(c1)[C@]1(COC(N)=N1)c1cc(-c3cncnc3)ccc1O2 [Example 122, (R)-2′-(3-methoxy-3-methylbutyl)-7′-(pyrimidin-5-yl)-5H-spiro[oxazole-4,9′-xanthen]-2-amine]
[1]; Table III, IC50's in uM ranges
  IC50: < 0.1 µM
[2]; Table III, IC50's in uM ranges
  IC50: < 0.1 µM

## COC(C)(C)C#Cc1ccc2c(c1)[C@@]1(COC(N)=N1)c1cc(-c3cccnc3)cnc1O2 [208a]
[1]; Table III, IC50's in uM ranges
  IC50: 0.1 to 1 µM
[2]; Table III, IC50's in uM ranges
  IC50: 0.1 to 1 µM

## NC1=N[C@@]2(CO1)c1cc(-c3cccnc3)ccc1Oc1ccc(Cl)nc12 [compound 988]
[1]
  IC50: 1 to 5 µM
[2]
  IC50: 1 to 5 µM

## NC1=N[C@@]2(CO1)c1cc(-c3cncnc3)ccc1Oc1cc(OCC(F)(F)F)c(F)cc12 [compound 987]
[1]
  IC50: > 5 µM
[2]
  IC50: > 5 µM

## COc1ccc2c(c1)[C@]1(COC(N)=N1)c1cc(NC(=O)[C@H](C)OC)ccc1O2 [compound 535]
[1]; Table IV, class symbols
  IC50: 1 to 5 µM
[2]; Table IV, class symbols
  IC50: 1 to 5 µM

## NC1=N[C@@]2(CO1)c1cc(Br)ccc1Oc1ccc(C#CC3(O)COC3)cc12 [compound 682]
[1]
  IC50: 1 to 5 µM
[2]
  IC50: > 5 µM

## COCC(=O)Nc1ccc2c(c1)[C@@]1(COC(N)=N1)c1cc(-c3ccccc3)ccc1O2 [compound 533]
[1]; Table IV, class symbols
  IC50: < 0.1 µM
[2]; Table IV, class symbols
  IC50: < 0.1 µM

## CC(C)(C)C#Cc1ccc2c(n1)[C@]1(COC(N)=N1)c1cc(-c3cncnc3)ccc1O2 [compound 526]
[1]
  IC50: 0.1 to 1 µM
[2]; HEK cells
  IC50: 0.1 to 1 µM

## COc1cc(-c2cc3c(cn2)Oc2ccc(-c4cccnc4F)cc2[C@@]32COC(N)=N2)ccn1 [compound 430]
[1]
  IC50: < 0.1 µM
[2]; HEK cells
  IC50: 0.1 to 1 µM

## NC1=N[C@]2(CO1)c1cc(C(=O)N3CCCC3)ccc1Oc1ccc(-c3cccnc3)cc12 [compound 945]
[1]
  IC50: 0.1 to 1 µM
[2]
  IC50: 0.1 to 1 µM

## NC1=N[C@@]2(CO1)c1cc(-c3cccnc3)ccc1Oc1cnc(/C=C/C3CC3)cc12 [compound 728]
[1]
  IC50: < 0.1 µM
[2]
  IC50: < 0.1 µM

## CN(C)CC#Cc1ccc2c(c1)[C@@]1(COC(N)=N1)c1cc(OCC(C)(C)C)ccc1O2 [Example 89, (4S)-2′-(3-(dimethylamino)-1-propyn-1-yl)-7′-(2,2-dimethylpropoxy)spiro[1,3-oxazole-4,9′-xanthen]-2-amine]
[1]; Table II
  IC50: 0.1 to 1 µM
[2]; Table II, Aβ40, 24 h incubation
  IC50: 0.1 to 1 µM

## CC(C)(C)COc1ccc2c(c1)[C@@]1(COC(N)=N1)c1cc(C(=O)N3CCCC3)ccc1O2 [compound 992]
[1]
  IC50: 0.1 to 1 µM
[2]
  IC50: 1 to 5 µM

## NC1=N[C@@]2(CO1)c1cc(-c3ccc(F)nc3)ccc1Oc1cnc(C3=CCOCC3)cc12 [compound 431, (5S)-3-(3,6-dihydro-2H-pyran-4-yl)-7-(6-fluoro-3-pyridinyl)spiro[chromeno[2,3-c]pyridine-5,4′-[1,3]oxazol]-2′-amine]
[1]
  IC50: < 0.1 µM
[2]; HEK cells
  IC50: < 0.1 µM

## NC1=N[C@]2(CO1)c1cc(-c3cccnc3)ccc1Oc1ncc(Br)cc12 [compound 174]
[1]; Table III, IC50's in uM ranges
  IC50: < 0.1 µM
[2]; Table III, IC50's in uM ranges
  IC50: 0.1 to 1 µM

## COc1ccc2c(c1)[C@]1(COC(N)=N1)c1cc(-c3cncnc3)cc(F)c1O2 [152a]
[1]; Table III, IC50's in uM ranges
  IC50: 0.1 to 1 µM
[2]; Table III, IC50's in uM ranges
  IC50: 1 to 5 µM

## Cc1cccc(-c2ccc3c(c2)[C@]2(COC(N)=N2)c2cccnc2O3)c1 [compound 596]
[1]; Table IV, class symbols
  IC50: 0.1 to 1 µM
[2]; Table IV, class symbols
  IC50: 1 to 5 µM

## CC(C)(C)COc1ccc2c(c1)[C@]1(COC(N)=N1)c1cc(C(C)(C)O)ccc1O2 [compound 827]
[1]; Table IV, class symbols
  IC50: 0.1 to 1 µM
[2]; Table IV, class symbols
  IC50: 1 to 5 µM

## CC(C)(C)COc1ccc2c(c1)[C@]1(COC(N)=N1)c1cc(-c3cnccn3)ccc1O2 [Example 131, (S)-2′-(neopentyloxy)-7′-(pyrazin-2-yl)-5H-spiro[oxazole-4,9′-xanthen]-2-amine]
[1]; Table III, IC50's in uM ranges
  IC50: < 0.1 µM
[2]; Table III, IC50's in uM ranges
  IC50: < 0.1 µM

## CC(C)(C)COc1ccc2c(c1)[C@]1(COC(N)=N1)c1cc(-c3cncs3)ccc1O2 [compound 971]
[1]
  IC50: < 0.1 µM
[2]
  IC50: 1 to 5 µM

## CC(C)(C)CCc1ccc2c(c1)[C@@]1(COC(N)=N1)c1cc(-c3cccnc3)cnc1O2 [compound 161]
[1]; Table III, IC50's in uM ranges
  IC50: < 0.1 µM
[2]; Table III, IC50's in uM ranges
  IC50: < 0.1 µM

## CC(C)(C)COc1ccc2c(c1)[C@]1(COC(N)=N1)c1cc(-c3cccnn3)ccc1O2 [compound 649]
[1]; Table IV, class symbols
  IC50: < 0.1 µM
[2]; Table IV, class symbols
  IC50: 0.1 to 1 µM

## COCC(=O)Nc1ccc2c(c1)[C@@]1(COC(N)=N1)c1cc(OC)ccc1O2 [compound 613]
[1]; Table IV, class symbols
  IC50: 0.1 to 1 µM
[2]; Table IV, class symbols
  IC50: 0.1 to 1 µM

## CC(C)(C)C#Cc1ccc2c(c1)[C@@]1(COC(N)=N1)c1cc(C#CC(C)(C)C)cnc1O2 [compound 897]
[1]; Table IV, class symbols
  IC50: < 0.1 µM
[2]; Table IV, class symbols
  IC50: 0.1 to 1 µM
